In ChEMBL document CHEMBL1201862, “PubChem BioAssay data set” (2004):
Active and inactive are the calls of the source.

These molecules were tested against T1, Serine/threonine-protein kinase TBK1 (Homo sapiens, UniProt Q9UHD2) (assay: Navigating the Kinome. Panel member name: TBK1).
T1 sequence (Q9UHD2 whole entry): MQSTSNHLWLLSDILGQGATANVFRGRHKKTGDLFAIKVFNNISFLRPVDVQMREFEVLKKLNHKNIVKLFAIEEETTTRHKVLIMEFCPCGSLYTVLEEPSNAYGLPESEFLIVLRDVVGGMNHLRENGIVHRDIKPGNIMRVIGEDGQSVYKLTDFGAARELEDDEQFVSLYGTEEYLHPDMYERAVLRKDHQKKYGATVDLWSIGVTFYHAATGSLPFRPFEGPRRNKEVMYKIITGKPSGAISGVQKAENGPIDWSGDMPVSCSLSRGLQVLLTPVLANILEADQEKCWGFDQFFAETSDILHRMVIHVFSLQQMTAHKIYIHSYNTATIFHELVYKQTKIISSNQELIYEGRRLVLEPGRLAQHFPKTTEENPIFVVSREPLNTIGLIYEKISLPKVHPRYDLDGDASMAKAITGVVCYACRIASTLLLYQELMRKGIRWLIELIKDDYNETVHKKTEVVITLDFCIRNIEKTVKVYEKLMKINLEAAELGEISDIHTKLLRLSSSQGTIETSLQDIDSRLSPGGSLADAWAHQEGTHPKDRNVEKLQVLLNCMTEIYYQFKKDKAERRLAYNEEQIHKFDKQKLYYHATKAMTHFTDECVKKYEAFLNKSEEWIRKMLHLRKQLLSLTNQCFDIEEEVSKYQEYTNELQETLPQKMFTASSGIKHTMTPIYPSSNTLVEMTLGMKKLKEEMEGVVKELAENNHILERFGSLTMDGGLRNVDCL
Format: functional

| SMILES | Ki |
| --- | --- |
| NC(COc1cncc(-c2ccc3c(c2)C(=Cc2ccc[nH]2)C(=O)N3)c1)Cc1ccccc1 (centres undefined) | 7.94 nM (active) |
| O=C1Cc2cc(-c3ccccc3)cnc2N1 | 79400 nM (active) |
| O=C1Nc2cc(-c3ccc(O)cc3)ccc2C1=Cc1ccc[nH]1 | 1260 nM (active) |

These molecules were tested against LIM domain kinase 1 (Homo sapiens, UniProt P53667) (assay: Navigating the Kinome. Panel member name: LIMK1).
Format: functional

LIM domain kinase 1, sequence (P53667 whole entry, the tested form may be a part): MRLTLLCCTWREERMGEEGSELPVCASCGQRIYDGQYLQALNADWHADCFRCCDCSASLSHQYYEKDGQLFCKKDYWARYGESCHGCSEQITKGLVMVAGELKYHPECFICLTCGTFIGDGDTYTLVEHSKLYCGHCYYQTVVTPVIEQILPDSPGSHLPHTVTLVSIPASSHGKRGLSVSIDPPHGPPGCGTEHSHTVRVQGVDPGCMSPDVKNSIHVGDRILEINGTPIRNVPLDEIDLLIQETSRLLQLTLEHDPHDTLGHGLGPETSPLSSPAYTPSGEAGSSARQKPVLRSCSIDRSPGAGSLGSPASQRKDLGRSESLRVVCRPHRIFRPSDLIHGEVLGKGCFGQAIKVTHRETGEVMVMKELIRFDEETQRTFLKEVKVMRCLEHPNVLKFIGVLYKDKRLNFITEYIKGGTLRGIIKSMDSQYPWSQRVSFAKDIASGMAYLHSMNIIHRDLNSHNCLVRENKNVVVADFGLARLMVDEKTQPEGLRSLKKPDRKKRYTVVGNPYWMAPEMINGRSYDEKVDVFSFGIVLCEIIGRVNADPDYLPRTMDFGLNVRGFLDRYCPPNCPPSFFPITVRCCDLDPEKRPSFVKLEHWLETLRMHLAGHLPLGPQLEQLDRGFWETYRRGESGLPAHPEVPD

| SMILES | Ki |
| --- | --- |
| NC(COc1cncc(-c2ccc3c(c2)C(=Cc2ccc[nH]2)C(=O)N3)c1)Cc1ccccc1 (centres undefined) | 501 nM (active) |
| O=C1Cc2cc(-c3ccccc3)cnc2N1 | 63100 nM (active) |
| O=C1Nc2cc(-c3ccc(O)cc3)ccc2C1=Cc1ccc[nH]1 | 2510 nM (active) |

These molecules were tested against Cyclin-dependent kinase 5 (Homo sapiens, UniProt Q00535).
Format: functional

Cyclin-dependent kinase 5, sequence (Q00535 whole entry): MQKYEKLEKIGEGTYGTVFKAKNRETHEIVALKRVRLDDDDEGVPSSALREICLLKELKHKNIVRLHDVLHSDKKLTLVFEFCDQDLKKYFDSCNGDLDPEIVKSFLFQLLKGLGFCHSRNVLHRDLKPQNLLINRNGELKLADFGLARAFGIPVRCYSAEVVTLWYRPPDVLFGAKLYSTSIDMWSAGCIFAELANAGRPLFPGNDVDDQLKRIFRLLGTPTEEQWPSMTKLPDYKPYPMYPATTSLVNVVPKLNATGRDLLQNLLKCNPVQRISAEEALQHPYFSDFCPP

| SMILES | Ki |
| --- | --- |
| NC(COc1cncc(-c2ccc3c(c2)C(=Cc2ccc[nH]2)C(=O)N3)c1)Cc1ccccc1 (centres undefined) | 0.631 nM (active) |
| O=C1Cc2cc(-c3ccccc3)cnc2N1 | 25100 nM (active) |
| O=C1Nc2cc(-c3ccc(O)cc3)ccc2C1=Cc1ccc[nH]1 | > 3160 nM (inactive) |

What follows are molecules tested against Leucine-rich repeat serine/threonine-protein kinase 2 (Homo sapiens, UniProt Q5S007).
Format: functional

Leucine-rich repeat serine/threonine-protein kinase 2, sequence (Q5S007 whole entry): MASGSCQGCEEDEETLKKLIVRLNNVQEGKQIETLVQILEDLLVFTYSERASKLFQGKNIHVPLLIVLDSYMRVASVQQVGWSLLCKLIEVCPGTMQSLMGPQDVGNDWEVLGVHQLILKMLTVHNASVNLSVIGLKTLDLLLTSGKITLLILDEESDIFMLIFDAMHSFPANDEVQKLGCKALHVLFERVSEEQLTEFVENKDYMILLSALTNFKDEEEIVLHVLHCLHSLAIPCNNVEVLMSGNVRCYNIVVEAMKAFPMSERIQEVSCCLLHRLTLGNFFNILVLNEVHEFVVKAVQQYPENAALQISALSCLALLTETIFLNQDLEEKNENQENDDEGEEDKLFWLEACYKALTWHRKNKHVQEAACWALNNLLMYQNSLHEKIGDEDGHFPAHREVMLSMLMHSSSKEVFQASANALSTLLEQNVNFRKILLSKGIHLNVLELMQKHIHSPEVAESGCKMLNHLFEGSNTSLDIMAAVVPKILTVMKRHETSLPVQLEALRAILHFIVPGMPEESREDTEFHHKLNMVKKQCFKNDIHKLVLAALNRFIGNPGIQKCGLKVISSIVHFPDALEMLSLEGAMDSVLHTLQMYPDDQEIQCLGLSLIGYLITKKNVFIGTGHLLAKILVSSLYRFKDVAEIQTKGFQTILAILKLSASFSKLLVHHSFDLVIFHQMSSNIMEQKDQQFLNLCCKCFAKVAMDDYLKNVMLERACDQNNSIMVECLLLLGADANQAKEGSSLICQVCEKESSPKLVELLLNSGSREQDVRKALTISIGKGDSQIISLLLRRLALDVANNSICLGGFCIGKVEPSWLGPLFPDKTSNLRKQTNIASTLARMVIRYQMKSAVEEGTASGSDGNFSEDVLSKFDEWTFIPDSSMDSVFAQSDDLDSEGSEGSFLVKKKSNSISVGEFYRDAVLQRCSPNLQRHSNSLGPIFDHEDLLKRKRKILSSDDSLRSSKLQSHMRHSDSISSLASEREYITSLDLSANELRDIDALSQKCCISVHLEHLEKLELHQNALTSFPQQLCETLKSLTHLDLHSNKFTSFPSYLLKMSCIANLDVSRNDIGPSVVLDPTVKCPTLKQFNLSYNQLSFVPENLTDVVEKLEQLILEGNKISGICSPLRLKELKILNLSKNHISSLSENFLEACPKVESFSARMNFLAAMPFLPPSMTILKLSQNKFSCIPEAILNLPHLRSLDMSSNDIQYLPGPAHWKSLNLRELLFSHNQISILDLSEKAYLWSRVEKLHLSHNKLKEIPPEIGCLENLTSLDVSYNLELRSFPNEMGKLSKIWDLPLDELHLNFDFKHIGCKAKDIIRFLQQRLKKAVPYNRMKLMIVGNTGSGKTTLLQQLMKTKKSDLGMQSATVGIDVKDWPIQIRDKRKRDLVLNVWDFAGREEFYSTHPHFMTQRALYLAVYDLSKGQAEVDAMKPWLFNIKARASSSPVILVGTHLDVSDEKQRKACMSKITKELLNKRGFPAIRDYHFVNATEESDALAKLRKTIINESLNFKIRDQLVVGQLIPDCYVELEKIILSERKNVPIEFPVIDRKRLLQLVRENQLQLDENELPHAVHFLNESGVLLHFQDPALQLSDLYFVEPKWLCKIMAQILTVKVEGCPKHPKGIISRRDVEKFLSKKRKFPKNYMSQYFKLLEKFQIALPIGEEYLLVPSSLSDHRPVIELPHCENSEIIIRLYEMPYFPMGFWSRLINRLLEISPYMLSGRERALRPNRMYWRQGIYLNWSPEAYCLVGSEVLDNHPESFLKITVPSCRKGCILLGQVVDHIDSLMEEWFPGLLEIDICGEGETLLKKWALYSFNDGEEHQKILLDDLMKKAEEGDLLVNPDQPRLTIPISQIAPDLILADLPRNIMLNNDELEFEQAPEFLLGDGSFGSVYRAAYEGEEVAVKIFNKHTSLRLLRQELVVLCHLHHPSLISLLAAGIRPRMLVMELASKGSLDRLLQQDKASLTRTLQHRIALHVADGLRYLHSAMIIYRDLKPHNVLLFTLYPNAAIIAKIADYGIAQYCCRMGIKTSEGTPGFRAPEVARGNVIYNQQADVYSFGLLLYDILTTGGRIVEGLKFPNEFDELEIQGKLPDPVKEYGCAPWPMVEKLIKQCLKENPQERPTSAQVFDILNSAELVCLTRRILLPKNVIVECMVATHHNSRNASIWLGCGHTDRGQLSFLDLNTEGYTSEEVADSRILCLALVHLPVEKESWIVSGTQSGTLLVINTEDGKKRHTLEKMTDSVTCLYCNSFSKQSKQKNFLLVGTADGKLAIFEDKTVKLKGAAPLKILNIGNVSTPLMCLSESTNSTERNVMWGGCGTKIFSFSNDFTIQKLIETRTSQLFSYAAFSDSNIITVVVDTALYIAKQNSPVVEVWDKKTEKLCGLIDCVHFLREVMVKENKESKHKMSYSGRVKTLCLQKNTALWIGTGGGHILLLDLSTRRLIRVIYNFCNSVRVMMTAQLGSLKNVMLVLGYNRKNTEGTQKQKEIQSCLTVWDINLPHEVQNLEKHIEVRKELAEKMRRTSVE

| SMILES | Ki |
| --- | --- |
| NC(COc1cncc(-c2ccc3c(c2)C(=Cc2ccc[nH]2)C(=O)N3)c1)Cc1ccccc1 (centres undefined) | 6.31 nM (active) |
| O=C1Cc2cc(-c3ccccc3)cnc2N1 | 20000 nM (active) |
| O=C1Nc2cc(-c3ccc(O)cc3)ccc2C1=Cc1ccc[nH]1 | 7.94 nM (active) |

The molecules below were run against Dual specificity tyrosine-phosphorylation-regulated kinase 1A (Homo sapiens, UniProt Q13627).
Format: functional

| SMILES | Ki |
| --- | --- |
| NC(COc1cncc(-c2ccc3c(c2)C(=Cc2ccc[nH]2)C(=O)N3)c1)Cc1ccccc1 (centres undefined) | 0.398 nM (active) |
| O=C1Cc2cc(-c3ccccc3)cnc2N1 | 39800 nM (active) |
| O=C1Nc2cc(-c3ccc(O)cc3)ccc2C1=Cc1ccc[nH]1 | > 2000 nM (inactive) |

The molecules below were run against T2, Inhibitor of nuclear factor kappa-B kinase subunit epsilon (Homo sapiens, UniProt Q14164) (assay: Navigating the Kinome. Panel member name: IKBKE).
T2 sequence (Q14164 whole entry): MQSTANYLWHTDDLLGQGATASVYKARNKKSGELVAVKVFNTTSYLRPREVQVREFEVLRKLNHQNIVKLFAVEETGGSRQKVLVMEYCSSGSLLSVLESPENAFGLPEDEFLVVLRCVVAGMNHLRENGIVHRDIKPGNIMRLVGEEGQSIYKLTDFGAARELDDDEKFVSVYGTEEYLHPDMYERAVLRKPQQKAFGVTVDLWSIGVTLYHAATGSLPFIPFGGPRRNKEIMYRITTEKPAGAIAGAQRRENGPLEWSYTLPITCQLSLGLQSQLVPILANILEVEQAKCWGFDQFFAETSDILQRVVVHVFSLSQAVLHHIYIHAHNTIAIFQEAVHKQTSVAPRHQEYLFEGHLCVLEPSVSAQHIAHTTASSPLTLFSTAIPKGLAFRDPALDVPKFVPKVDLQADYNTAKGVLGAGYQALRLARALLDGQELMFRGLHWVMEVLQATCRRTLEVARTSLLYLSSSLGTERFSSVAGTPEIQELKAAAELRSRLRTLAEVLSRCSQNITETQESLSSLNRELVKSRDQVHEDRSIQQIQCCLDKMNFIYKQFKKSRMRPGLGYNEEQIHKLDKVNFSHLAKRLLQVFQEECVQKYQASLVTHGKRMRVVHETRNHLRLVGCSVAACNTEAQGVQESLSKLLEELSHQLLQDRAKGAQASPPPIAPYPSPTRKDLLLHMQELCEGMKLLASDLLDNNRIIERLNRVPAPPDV
Format: functional

| SMILES | Ki |
| --- | --- |
| NC(COc1cncc(-c2ccc3c(c2)C(=Cc2ccc[nH]2)C(=O)N3)c1)Cc1ccccc1 (centres undefined) | 20 nM (active) |
| O=C1Cc2cc(-c3ccccc3)cnc2N1 | 100000 nM (active) |
| O=C1Nc2cc(-c3ccc(O)cc3)ccc2C1=Cc1ccc[nH]1 | > 3160 nM (inactive) |

Each molecule was assayed against Leukocyte tyrosine kinase receptor (Homo sapiens, UniProt P29376) (assay: Navigating the Kinome. Panel member name: LTK).
Format: functional

Leukocyte tyrosine kinase receptor, sequence (P29376 whole entry): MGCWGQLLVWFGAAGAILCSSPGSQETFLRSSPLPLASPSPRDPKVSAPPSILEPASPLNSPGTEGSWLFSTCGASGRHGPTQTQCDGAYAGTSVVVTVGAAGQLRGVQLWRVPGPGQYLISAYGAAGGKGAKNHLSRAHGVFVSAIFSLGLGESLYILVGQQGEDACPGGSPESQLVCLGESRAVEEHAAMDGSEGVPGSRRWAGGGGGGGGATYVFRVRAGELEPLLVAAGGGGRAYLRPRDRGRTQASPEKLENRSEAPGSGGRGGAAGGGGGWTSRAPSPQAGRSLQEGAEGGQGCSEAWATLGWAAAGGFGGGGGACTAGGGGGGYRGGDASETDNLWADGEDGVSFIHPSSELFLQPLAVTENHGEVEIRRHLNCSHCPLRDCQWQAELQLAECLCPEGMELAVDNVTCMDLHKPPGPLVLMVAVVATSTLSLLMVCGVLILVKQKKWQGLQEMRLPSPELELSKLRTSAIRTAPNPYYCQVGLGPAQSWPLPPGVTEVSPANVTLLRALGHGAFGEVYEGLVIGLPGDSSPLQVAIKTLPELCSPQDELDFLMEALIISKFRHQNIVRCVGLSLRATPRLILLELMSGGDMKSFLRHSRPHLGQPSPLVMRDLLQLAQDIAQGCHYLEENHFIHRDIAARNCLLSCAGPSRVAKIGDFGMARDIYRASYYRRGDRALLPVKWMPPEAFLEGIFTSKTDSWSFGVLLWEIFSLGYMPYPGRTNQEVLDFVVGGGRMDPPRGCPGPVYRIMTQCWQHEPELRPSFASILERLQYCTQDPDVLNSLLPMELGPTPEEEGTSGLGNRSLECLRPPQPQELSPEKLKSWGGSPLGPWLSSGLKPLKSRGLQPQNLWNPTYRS

| SMILES | Ki |
| --- | --- |
| NC(COc1cncc(-c2ccc3c(c2)C(=Cc2ccc[nH]2)C(=O)N3)c1)Cc1ccccc1 (centres undefined) | 126 nM (active) |
| O=C1Cc2cc(-c3ccccc3)cnc2N1 | 15800 nM (active) |
| O=C1Nc2cc(-c3ccc(O)cc3)ccc2C1=Cc1ccc[nH]1 | 3.98 nM (active) |

What follows are molecules tested against T3, Rac GTPase-activating protein 1 (Homo sapiens, UniProt Q9H0H5) (assay: MgcRacGAP GTPase-activating activity inhibitors, confirmation, biochemical, ADP Hunter fluorescence, primary and confirmatory (AID 624330)).
T3 sequence (Q9H0H5 whole entry): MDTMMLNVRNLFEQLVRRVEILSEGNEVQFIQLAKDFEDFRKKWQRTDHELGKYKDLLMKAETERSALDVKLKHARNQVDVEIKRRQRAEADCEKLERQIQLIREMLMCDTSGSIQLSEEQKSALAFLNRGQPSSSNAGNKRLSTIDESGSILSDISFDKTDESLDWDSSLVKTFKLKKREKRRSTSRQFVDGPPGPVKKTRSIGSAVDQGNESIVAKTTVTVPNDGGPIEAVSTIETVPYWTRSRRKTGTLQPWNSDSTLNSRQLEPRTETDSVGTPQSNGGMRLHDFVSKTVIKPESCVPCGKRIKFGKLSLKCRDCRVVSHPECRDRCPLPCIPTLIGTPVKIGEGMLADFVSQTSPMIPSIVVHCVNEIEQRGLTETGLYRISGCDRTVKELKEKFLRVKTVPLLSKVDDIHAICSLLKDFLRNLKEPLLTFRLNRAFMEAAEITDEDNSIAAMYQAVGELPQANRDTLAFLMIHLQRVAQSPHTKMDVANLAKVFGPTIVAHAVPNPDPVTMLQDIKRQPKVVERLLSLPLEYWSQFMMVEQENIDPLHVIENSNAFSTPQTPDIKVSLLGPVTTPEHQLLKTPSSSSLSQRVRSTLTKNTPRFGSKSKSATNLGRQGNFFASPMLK
Format: functional

| SMILES | IC50 |
| --- | --- |
| O=C(O)c1ccc2c(c1)[C@@H]1C=CC[C@@H]1[C@H](c1ccccn1)N2 | 360000 nM (active) |
| CCN(CC)CCOc1ccc2c(c1)C(=NNC(=O)c1ccccn1)c1cc(OCCN(CC)CC)ccc1-2 | 31300 nM (active) |
| COc1cc2cc(NC(C)=O)cc(NCc3ccccc3)c2cc1OC | 49600 nM (active) |
